Test results as given in US10065941B2, “Aminotriazine derivative and pharmaceutical composition comprising the same” (Shionogi & Co., Ltd., priority 2013, dated 2018).

biological target: human P2X3 receptor (Homo sapiens (Human), UniProt P56373); assay: Evaluation of human P2X3 receptor inhibitory activity (Test Example 1); assay type: cell-based; conditions: C6BU-1 cell transfected with human P2X3 receptor gene, FLIPR 384
Method in brief: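 FLIPR calcium read-out: signal taken as peak fluorescence after ATP addition divided by starting fluorescence, and IC50 calculated from it. Compound added 5 min before 150 nM ATP solution (pre-dispense stock) to Fluo-3-AM-loaded C6BU-1 cells stably transfected with human P2X3; HEPES buffer pH 7.5 with probenecid.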

Chain of human P2X3 receptor (P56373 whole entry): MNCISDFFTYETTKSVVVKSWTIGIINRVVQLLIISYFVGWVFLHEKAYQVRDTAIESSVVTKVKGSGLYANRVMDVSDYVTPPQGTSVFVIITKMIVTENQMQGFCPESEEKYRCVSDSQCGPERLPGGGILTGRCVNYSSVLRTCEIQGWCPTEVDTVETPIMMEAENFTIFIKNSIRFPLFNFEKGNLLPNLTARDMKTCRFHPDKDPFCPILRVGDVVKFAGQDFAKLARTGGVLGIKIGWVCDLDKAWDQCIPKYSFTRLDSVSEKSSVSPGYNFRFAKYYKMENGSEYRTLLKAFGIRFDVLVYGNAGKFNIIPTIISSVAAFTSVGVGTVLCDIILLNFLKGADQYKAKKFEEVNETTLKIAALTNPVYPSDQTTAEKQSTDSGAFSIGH

Point of comparison: `CCOC(=O)Cn1c(=O)[nH]/c(=N\c2ccc(Oc3ccccn3)cc2)n(Cc2ccc(F)cc2)c1=O` [Compound R-307], IC50 13 nM. Against it:
- CC(C)Oc1ccc(/N=c2\[nH]c(=O)n([C@H]3C[C@@H](C(=O)O)C3)c(=O)n2Cc2ccc(Cl)cc2)cc1Cl [Compound R-022] — within 1.5-fold, 12 nM
- CC(C)(Cn1c(=O)[nH]/c(=N\c2ccc(Oc3ccc(C(F)(F)F)nn3)cc2)n(Cc2ccc(Cl)cc2)c1=O)C(=O)O [Compound R-031] — within 1.5-fold, 12 nM
- C[C@@H](C(=O)O)[C@H](C)n1c(=O)[nH]/c(=N\c2ccc(Oc3cnc(C#N)nc3)cc2)n(Cc2ccc(Cl)cc2)c1=O [Compound R-249] — 2.2-fold lower, 6 nM
- O=c1[nH]/c(=N\c2ccc(Oc3ccccn3)cc2)n(Cc2ccc(Cl)cc2)c(=O)n1[C@H]1C[C@@H](C(=O)O)C1 [Compound I-175] — within 1.5-fold, 9 nM
- NC(=O)NC(=O)Cn1c(=O)[nH]/c(=N\c2ccc(Oc3ccccn3)cc2)n(Cc2ccc(Cl)cc2)c1=O [Compound R-256] — 6.5-fold lower, 2 nM
- C[C@@H](Cn1c(=O)[nH]/c(=N\c2ccc(Oc3ccc(F)cn3)cc2)n(Cc2ccc(Cl)s2)c1=O)C(=O)O [Compound I-274] — 2.6-fold lower, 5 nM
- COC(=O)[C@@H](C)Cn1c(=O)[nH]/c(=N\c2ccc(Oc3cccc(F)n3)cc2)n(Cc2ccc(F)cc2F)c1=O [Compound I-026] — within 1.5-fold, 17 nM
- CC(=O)c1cccc(Oc2ccc(/N=c3\[nH]c(=O)n(CCC(=O)O)c(=O)n3Cc3ccc(Cl)cc3)cc2)n1 [Compound R-299] — 1.5-fold higher, 20 nM
- CCc1ccc(Oc2ccc(/N=c3\[nH]c(=O)n(C[C@H](C)C(=O)OC)c(=O)n3Cc3ccc(Cl)cc3)cc2)nc1 [Compound I-251] — 1.6-fold lower, 8 nM
- C[C@@H](Cn1c(=O)[nH]/c(=N\c2ccc(Oc3cc(F)nc(F)c3)cc2)n(Cc2ccc(Cl)cc2)c1=O)C(=O)O [Compound R-057] — 2.2-fold lower, 6 nM
- COC(=O)C(C)(C)Cn1c(=O)[nH]/c(=N\c2ccc(OC3CCC3)c(F)c2)n(Cc2ccc(Cl)cc2)c1=O [Compound R-073] — 2.4-fold higher, 31 nM
- Cc1ccc(Cn2c(=O)n([C@@H](C)[C@@H](C)C(=O)O)c(=O)[nH]/c2=N\c2ccc(Oc3cccc(F)n3)cc2)cc1 [Compound I-106] — 2.2-fold lower, 6 nM
- Cc1cc(/N=c2\[nH]c(=O)n(C[C@H](C)C(=O)O)c(=O)n2Cc2ccc(Cl)cc2)ccc1O[C@H](C)C(F)(F)F [Compound R-098] — 6.2-fold higher, 80 nM
- Cc1cnc(Oc2ccc(/N=c3\[nH]c(=O)n(C[C@H](C)C(=O)O)c(=O)n3Cc3ccc(Cl)cc3)cc2)s1 [Compound R-133] — 2.2-fold lower, 6 nM
- COC(=O)[C@H](Cn1c(=O)[nH]/c(=N\c2ccc(Oc3cccc(F)n3)cc2)n(Cc2ccc(Cl)cc2)c1=O)OC [Compound I-122] — 3.2-fold lower, 4 nM
- COC(=O)[C@@H](C)Cn1c(=O)[nH]/c(=N\c2ccc(Oc3cc(OC)ccn3)cc2)n(Cc2ccc(Cl)cc2)c1=O [Compound I-139] — within 1.5-fold, 10 nM
- COC(=O)[C@@H](C)Cn1c(=O)[nH]/c(=N\c2ccc(N3CCOCC3)c(F)c2)n(Cc2ccc(Cl)cc2)c1=O [Compound R-106] — 29-fold higher, 379 nM
- C[C@@H](Cn1c(=O)[nH]/c(=N\c2ccc(Oc3ccccn3)c(F)c2)n(Cc2ccc(Cl)cc2)c1=O)C(=O)O [Compound I-211] — 1.9-fold lower, 7 nM
- O=c1[nH]/c(=N\c2ccc(Oc3cccc(F)n3)cc2)n(Cc2ccc(Cl)cc2)c(=O)n1CC1(CO)COC1 [Compound I-042] — 3.2-fold lower, 4 nM
- Cc1ccc(Cn2c(=O)n(C[C@H](C)C(=O)O)c(=O)[nH]/c2=N\c2ccc(Oc3ccc(C(F)(F)F)cn3)cc2)cc1 [Compound I-038] — 2.6-fold lower, 5 nM
- COc1cc(Oc2ccc(/N=c3\[nH]c(=O)n(CC(C)(C)C(=O)O)c(=O)n3Cc3ccc(Cl)cc3)cc2)cc(F)n1 [Compound R-071] — 2.2-fold lower, 6 nM
- Cc1ccc(Oc2ccc(/N=c3\[nH]c(=O)n(C[C@H](C)C(=O)O)c(=O)n3Cc3ccc(Cl)cc3)cc2F)nn1 [Compound R-180] — 1.9-fold lower, 7 nM
- Cc1ccc(Oc2ccc(/N=c3\[nH]c(=O)n([C@@H](C)[C@@H](C)C(=O)O)c(=O)n3Cc3ccc(Cl)cc3)cc2)nc1 [Compound I-074] — 2.6-fold lower, 5 nM
- CCOC(=O)CCCn1c(=O)[nH]/c(=N\c2ccc(Oc3ccc(F)cn3)cc2)n(Cc2ccc(C)cc2)c1=O [Compound R-295] — 2.2-fold lower, 6 nM
- COc1ccc(Oc2ccc(/N=c3\[nH]c(=O)n([C@@H](C)[C@@H](C)C(=O)O)c(=O)n3Cc3ccc(Cl)cc3)cc2)nc1 [Compound I-094] — within 1.5-fold, 11 nM
- Cc1ccc(Cn2c(=O)n(CC(C)(C)C(=O)O)c(=O)[nH]/c2=N\c2ccc(Oc3cccc(Cl)n3)cc2)cc1 [Compound I-128] — 1.6-fold lower, 8 nM
- COC(=O)[C@@H](C)Cn1c(=O)[nH]/c(=N\c2ccc(Oc3cnccn3)c(F)c2)n(Cc2ccc(Cl)cc2)c1=O [Compound R-048] — 2.2-fold lower, 6 nM
- COC(=O)[C@H](C)[C@H](C)n1c(=O)[nH]/c(=N\c2ccc(Oc3ccc(C)cn3)cc2)n(Cc2ccc(C)cc2)c1=O [Compound I-109] — 2.2-fold lower, 6 nM
- COC(=O)[C@@H](C)Cn1c(=O)[nH]/c(=N\c2ccc(Oc3cc(F)ccn3)cc2)n(Cc2ccc(Cl)cc2)c1=O [Compound I-068] — 2.6-fold lower, 5 nM
- CC(C)(Cn1c(=O)[nH]/c(=N\c2ccc(Oc3ccc(F)cn3)cc2)n(Cc2ccc(Cl)cc2)c1=O)C(=O)O [Compound I-005] — 1.6-fold lower, 8 nM
- COC(=O)C(C)(C)Cn1c(=O)[nH]/c(=N\c2ccc(N3CCOCC3)c(C)c2)n(Cc2ccc(Cl)cc2)c1=O [Compound R-102] — 7.7-fold higher, 100 nM
- CCOC(=O)[C@H]1C[C@H](n2c(=O)[nH]/c(=N\c3ccc(Oc4ncccc4F)cc3)n(Cc3ccc(Cl)cc3)c2=O)C1 [Compound I-061] — 4.8-fold higher, 62 nM
- Cc1ccc(Cn2c(=O)n(C[C@H](C)C(=O)O)c(=O)[nH]/c2=N\c2ccc(Oc3ccccn3)c(C)c2)cc1 [Compound I-213] — within 1.5-fold, 12 nM
- COC(=O)C(C)(C)Cn1c(=O)[nH]/c(=N\c2ccc(Oc3ccc(C)nn3)c(F)c2)n(Cc2ccc(Cl)cc2)c1=O [Compound R-175] — within 1.5-fold, 19 nM
- C[C@@H](Cn1c(=O)[nH]/c(=N\c2ccc(Oc3cnccn3)c(F)c2)n(Cc2ccc(Cl)cc2)c1=O)C(=O)O [Compound R-055] — 1.9-fold lower, 7 nM
- C[C@H](CC(=O)O)n1c(=O)[nH]/c(=N\c2ccc(Oc3ncccc3F)cc2)n(Cc2ccc(Cl)cc2)c1=O [Compound I-166] — the same, 13 nM
- Cc1cncc(Oc2ccc(/N=c3\[nH]c(=O)n(C[C@H](C)C(=O)O)c(=O)n3Cc3ccc(Cl)cc3)cc2)c1 [Compound R-185] — within 1.5-fold, 12 nM
- Cc1ccc(Cn2c(=O)n([C@H](C)CC(=O)O)c(=O)[nH]/c2=N\c2ccc(Oc3ncccc3F)cc2)cc1 [Compound I-189] — within 1.5-fold, 12 nM
- C[C@@H](Cn1c(=O)[nH]/c(=N\c2ccc(Oc3cccnn3)c(F)c2)n(Cc2ccc(Cl)cc2)c1=O)C(=O)O [Compound R-037] — 1.9-fold lower, 7 nM
- O=C(O)Cn1c(=O)[nH]/c(=N\c2ccc(Oc3ccc(F)cn3)cc2)n(Cc2ccc(Cl)cc2)c1=O [Compound R-311] — 33-fold higher, 428 nM
- COC(=O)C(C)(C)Cn1c(=O)[nH]/c(=N\c2ccc(Oc3ccnc(C)n3)cc2)n(Cc2ccc(Cl)cc2)c1=O [Compound R-043] — 2.6-fold lower, 5 nM
- CCOC(=O)c1cnc(Oc2ccc(/N=c3\[nH]c(=O)n(CC)c(=O)n3Cc3ccc(Cl)cc3)cc2)c(Cl)c1 [Compound R-015, 1-(4-chlorobenzyl)-6-[4-(3-chloro-5-ethoxycarbonyl-2-pyridyloxy)phenylimino]-3-ethyl-1,3,5-triazinane-2,4-dione] — 8-fold higher, 104 nM
- COC(=O)[C@@H](C)Cn1c(=O)[nH]/c(=N\c2ccc(Oc3cc(Cl)ncn3)cc2)n(Cc2ccc(Cl)cc2)c1=O [Compound R-046] — 2.2-fold lower, 6 nM
- C[C@@H](Cn1c(=O)[nH]/c(=N\c2ccc(Oc3ccc(F)nn3)cc2)n(Cc2ccc(Cl)cc2)c1=O)C(=O)O [Compound R-196] — within 1.5-fold, 11 nM
- COC(=O)[C@@H](C)Cn1c(=O)[nH]/c(=N\c2ccc(N3CCOCC3)c(C)c2)n(Cc2ccc(Cl)cc2)c1=O [Compound R-101] — 15-fold higher, 201 nM
- C[C@@H](Cn1c(=O)[nH]/c(=N\c2ccc(Oc3cccc(CO)n3)cc2)n(Cc2ccc(Cl)cc2)c1=O)C(=O)O [Compound I-257] — within 1.5-fold, 16 nM
- COC(=O)CCn1c(=O)[nH]/c(=N\c2ccc(Oc3ccc(Cl)cn3)cc2)n(Cc2ccc(Cl)cc2)c1=O [Compound R-287] — 2.2-fold lower, 6 nM
- CCOC(=O)[C@H]1C[C@H](n2c(=O)[nH]/c(=N\c3ccc(Oc4ccccn4)cc3)n(Cc3ccc(C)cc3)c2=O)C1 [Compound I-180] — 2.6-fold lower, 5 nM
- COC(=O)C(C)(C)Cn1c(=O)[nH]/c(=N\c2ccc(Oc3cccnn3)c(F)c2)n(Cc2ccc(Cl)cc2)c1=O [Compound R-034] — 2.6-fold lower, 5 nM
- COC(=O)[C@@H](C)Cn1c(=O)[nH]/c(=N\c2ccc(Oc3ccccn3)cc2)n(Cc2ccc(C(F)F)cc2)c1=O [Compound I-194] — within 1.5-fold, 12 nM
- COC(=O)[C@@H](C)Cn1c(=O)[nH]/c(=N\c2ccc(Oc3nc(C)ns3)cc2)n(Cc2ccc(Cl)cc2)c1=O [Compound R-135] — 2.6-fold lower, 5 nM
- COc1ccnc(Oc2ccc(/N=c3\[nH]c(=O)n(C[C@H](C)C(=O)O)c(=O)n3Cc3ccc(Cl)cc3)cc2)c1 [Compound I-069] — 1.9-fold lower, 7 nM
- Cc1ccc(Cn2c(=O)n([C@H]3C[C@@H](C(=O)O)C3)c(=O)[nH]/c2=N\c2ccc(Oc3ccccn3)cc2)cc1 [Compound I-185] — within 1.5-fold, 9 nM
- Cc1ccc(Oc2ccc(/N=c3\[nH]c(=O)n(CC(C)(C)C(=O)O)c(=O)n3Cc3ccc(Cl)cc3)cc2F)nn1 [Compound R-181] — 1.9-fold lower, 7 nM
- COC(=O)[C@H](C)[C@H](C)n1c(=O)[nH]/c(=N\c2ccc(Oc3ccc(F)cn3)cc2)n(Cc2ccc(C)cc2)c1=O [Compound I-103] — 1.9-fold lower, 7 nM
- COC(=O)C(C)(C)Cn1c(=O)[nH]/c(=N\c2ccc(Oc3cncc(C)c3)cc2)n(Cc2ccc(Cl)cc2)c1=O [Compound R-193] — within 1.5-fold, 11 nM
- COC(=O)[C@@H](C)Cn1c(=O)[nH]/c(=N\c2ccc(Oc3cccc(CI)n3)cc2)n(Cc2ccc(C)cc2)c1=O [Compound I-265] — within 1.5-fold, 10 nM
- Cc1ccc(Cn2c(=O)n(CC(C)(C)C(=O)O)c(=O)[nH]/c2=N\c2ccc(Oc3ccccn3)cc2)cc1 [Compound I-155] — 1.6-fold lower, 8 nM
